From ChEMBL document CHEMBL1135279, “Design and synthesis of lignostilbene-alpha,beta-dioxygenase inhibitors” (Bioorg Med Chem Lett, 2002)

Experiments:
[1] = biological target: T1, Lignostilbene alpha, beta-dioxygenase (Sphingomonas paucimobilis, UniProt O87171); assay: Inhibitory concentration against Lignostilbene-alpha, beta-dioxygenase (LSD) was determined in 2 mL of 50 mM […] buffer containing 4 microg enzyme/mL at 30 degree C
T1 sequence (O87171 whole entry): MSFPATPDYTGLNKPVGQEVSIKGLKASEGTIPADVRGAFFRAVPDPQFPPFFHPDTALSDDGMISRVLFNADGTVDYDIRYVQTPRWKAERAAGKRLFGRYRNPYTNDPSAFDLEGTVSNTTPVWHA

[2] = biological target: T1, Lignostilbene alpha, beta-dioxygenase; assay: Inhibitory concentration against Lignostilbene alpha beta-dioxygenase (LSD) was determined in 2 mL of 50 mM […] buffer containing 4 microg enzyme/mL at 30 degree C
[3] = biological target: T1, Lignostilbene alpha, beta-dioxygenase; assay: Tested for the inhibition of Lignostilbene-alpha, beta-dioxygenase (LSD)

IC50 [1]	IC50 [2]	Ki [3]	Compound
> 100 µM	–	–	F/C(=C\c1ccccc1)c1ccccc1
15 µM	–	–	C/C(=C\c1ccc(O)cc1)c1ccccc1
–	22 µM	–	C/C(=C/c1ccccc1)c1ccccc1
> 100 µM	–	–	C/C(=C\c1ccccc1)c1ccccc1
3 µM	–	980 nM	Oc1ccc(/C(F)=C/c2ccccc2)cc1
–	7 µM	–	C/C(=C/c1ccc(O)cc1)c1ccccc1

Compound	IC50 [1]	IC50 [2]	Ki [3]
C=C(C)c1ccc(O)cc1	12 µM	–	–
